From patent publication US6492329B1, “Cytokine and hemopoietic factor endogenous production enhancer and methods of use thereof” (Novelos Therapeutics, Inc., priority 1995, dated 2002)
Several values for one entry are separate records, joined by “and”; a condition that tells them apart may be missing. Equal values may be shown once.

Columns and labels:
[1] = tested on: CBA mice with cyclophosphamide-induced hemo- and immunodepression; assay: Cyclophosphamide-induced hemo- and immunodepression in mice; type: in vivo, mouse; conditions: 5 mg/kg IP daily for 5 days
Method: The study was designed to evaluate the effect of a 5-day long administration of the test articles on the capability of the CP-treated murine splenocytes to produce IL-2 and GM-CSF in vitro. In addition, the number of blood leukocytes and lymphocytes and the bone marrow cellularity (number of karyocytes) were determined at 8 days after CP administration. Some animals receiving CP were then challenged with sheep red blood cells (SRBC), and the humoral immune response to the antigen was evaluated.
Male CBA mice (18 to 20 g body weight) were given a single intraperitoneal injection of CP in a dose of 50 mg/kg. […] Group description is represented below.
Injections were performed during 5 days: once a day, daily.
Twenty four hours after the completion of 5 day treatment course (on the 8th day after the CP injection), mice were euthanized and splenocyte cultures were aseptically prepared for assessment of spontaneous production of IL-2 and GM-CSF by the spleen lymphocytes in vitro.
Simultaneously, blood and marrow samples were collected for blood leukocyte and lymphocyte, and marrow nucleated cell counted,
Serum samples from immunized animals were tested on level of SRBC agglutinins (the day 8 after the CP injection, and the day 7 after the immunization).

[2] = tested on: CBA mice with radiation-induced hemo- and immunodepression; assay: Radiation-induced hemo- and immunodepression in mice; type: in vivo, mouse; conditions: mice irradiated 1 Gy, 5 mg/kg IP daily for 7 days, day 8 post-exposure
Method: The study was designed to evaluate efficacy of 7-day daily administration of the test articles (with the dosing started 2 hours post-exposure) on the capability of the splenocytes from mice exposed to radiation to produce IL-2 and GM-CSF in vitro. In addition, the number of blood leukocytes and lymphocytes and the spleen and bone marrow cellularity (number of karyocytes), as well as splenic and medullary colony-stimulating capacity, were determined at 8 days post-exposure.
Male CBA mice (18 to 20 g body weight) were irradiated with single dose of 180 kV X-rays filtered with 0.5 mm Cu (at 15 mA, distance—70 cm, duration 2 min. and 28 sec.).
The total absorbed dose comprised approximately 1 Gy. Five groups of animals (with no less than 12 mice in each) were formed. Group description is represented below.
Injections were performed during 7 days: once a day, daily.
Twenty four hours after the completion of 7 day treatment course (on the 8th day after the irradiation). mice were euthanized and splenocyte cultures were aseptically prepared for assessment of spontaneous production of IL-2 and GM-CSF by the spleen lymphocytes in vitro.
Simultaneously, blood, spleen and marrow samples were collected for blood leukocyte and lymphocyte, and spleen and marrow nucleated cell counting.
Additionally, hemopoietic colony formation ability of spleen and bone marrow cells was, assessed by the method of direct count of colony forming units (CFU) in the spleens of irradiated CBA mice receiving intravenously spleen or bone marrow cells obtained from animals of control or test groups.

[3] = cyclophosphamide-treated mice, day 8 after CP

## N[C@@H](CCC(=O)N[C@@H](CS)C(=O)NCC(=O)O)C(=O)O [GSH, γ-glutamyl-cysteinyl-glycine]
[1]; cyclophosphamide-treated mice immunized with SRBC, day 7 after immunization
  SRBC agglutinin titer: 1.94 log2 and 1.62 log2 and 2.09 log2
[1]; [3]
  Blood leukocyte count: 5.2 ± 10^9/L and 6.3 ± 10^9/L and 6.2 ± 10^9/L
  Blood lymphocyte count: 4.3 ± 10^9/L and 4.6 ± 10^9/L and 5.31 ± 10^9/L
  Bone marrow nucleated cell number: 32.2 ± 10^6/L and 36.4 ± 10^6/L
  IL-2 production by splenocytes: 17.2 U/mL and 15.3 U/mL and 20.3 U/mL
[2]
  Blood leukocyte count: 4.8 ± 10^9/L and 5.7 ± 10^9/L and 4.95 ± 10^9/L
  Blood lymphocyte count: 3.4 ± 10^9/L and 4.6 ± 10^9/L and 4.0 ± 10^9/L
  Bone marrow CFU: 22.1 and 25.6 and 25.3
  Bone marrow nucleated cell number: 17.2 ± 10^6/L and 24.7 ± 10^6/L and 22.5 ± 10^6/L
  IL-2 production by splenocytes: 8.6 U/mL and 9.3 U/mL and 9.9 U/mL
  Spleen CFU: 56.3 and 66.3 and 59.8
  Spleen nucleated cell number: 4.3 ± 10^7/L and 6.93 ± 10^7/L and 5.5 ± 10^7/L
